Like-named read-outs stand apart in the source and are kept apart here.
Legend:
[1] = as a formaldehyde depot substance; cited from earlier work
Alternaria tenuis = assay: minimum inhibitory concentration (MIC) in agar culture media; synergism by Kull et al; format: cell-based; conditions: for X (synergism index by Kull et al): X=1 additivity, X>1 antagonism, X<1 synergism
Procedure: (§1) The MIC values of A and B are compared with the MIC values of mixtures A/B.
(§2) The synergism is determined according to the method described by Kull et al (F. C. Kull, P. C. Eismann, H. D. Sylvestrowicz, R. L. Mayer, Applied Microbiol. 9, 538 to 541, 1961). The following symbols apply here: [formula] X=1 denotes additivity X>1 denotes antagonism
(§3) Qa =concentration of compound A, which represents the MIC
(§4) Qb =concentration of compound B, which represents the MIC
(§5) QA =the amount of compound A in the concentration of A/B, which prevents the growth of microbes
(§6) QB =the amount of compound B in the concentration of A/B which prevents the growth of microbes.

Aspergillus niger = assay: as above; format: cell-based; conditions: for X (synergism index by Kull et al): X=1 additivity, X>1 antagonism, X<1 synergism
Procedure: as §1, §2, §3, §4, §5, §6

Chaetomium globosum = assay: as above; format: cell-based; conditions: for X (synergism index by Kull et al): X=1 additivity, X>1 antagonism, X<1 synergism
Procedure: as §1, §2, §3, §4, §5, §6

Coniophora cerebella = assay: as above; format: cell-based; conditions: for X (synergism index by Kull et al): X=1 additivity, X>1 antagonism, X<1 synergism
Procedure: as §1, §2, §3, §4, §5, §6

Pullularia pullulans = assay: as above; format: cell-based; conditions: for X (synergism index by Kull et al): X=1 additivity, X>1 antagonism, X<1 synergism
Procedure: as §1, §2, §3, §4, §5, §6

Trichoderma viride = assay: as above; format: cell-based; conditions: for X (synergism index by Kull et al): X=1 additivity, X>1 antagonism, X<1 synergism
Procedure: as §1, §2, §3, §4, §5, §6

[2] = test system: Chaetomium globosum Kunze and Aspergillus niger; assay: mould resistance of soap-wrapping paper; conditions: 0.5% by weight of paper added to pulp
Procedure: (§7) Based on the weight of the paper (90 to 100 g/m^2) 0.5% of A/B=6/1 is homogeneously mixed under a pulp (density 1%, pH value 4.8) having the following composition:
The mould resistance and the antimicrobial activity of the soap-wrapping paper obtained in this manner is tested in the following way:
Circular paper test specimens (diameter 4 cm) are placed in a nutrient medium in Petri dishes, the medium having previously been infested with the test fungi Chaetomium globosum Kunze and Aspergillus niger.

fungus = assay: paper production: pulp feeding system, losses of active compound, effluent and discharged air; conditions: 0.5% by weight of paper added to the pulp
Procedure: as §7
If, however, as is customary, owing to the lack up until now of usable alternatives, 0.5% of sodium pentachlorophenolate (related to the weight of the paper) is added to the pulp, losses of active compound amounting to more than 50% occur (approx. 25% are found in the effluent and approx. 25% in the outgoing air).

rats = conditions: comparison compound; cited from earlier work
[3] = A differs between Example 1 and Example 6

| Structure (SMILES) | X (synergism index by Kull et al) (Alternaria tenuis) | MIC (Alternaria tenuis; agar culture media) | QA (amount of compound A in the concentration of A/B which prevents the growth of microbes) (Aspergillus niger; [3]) | X (synergism index by Kull et al) (Aspergillus niger) | MIC (Aspergillus niger; agar culture media) | QA (amount of compound A in the concentration of A/B which prevents the growth of microbes) (Chaetomium globosum; [3]) | X (synergism index by Kull et al) (Chaetomium globosum) | MIC (Chaetomium globosum; agar culture media) | QA (amount of compound A in the concentration of A/B which prevents the growth of microbes) (Coniophora cerebella; [3]) | X (synergism index by Kull et al) (Coniophora cerebella) | MIC (Coniophora cerebella; agar culture media) | QA (amount of compound A in the concentration of A/B which prevents the growth of microbes) (Pullularia pullulans; [3]) | X (synergism index by Kull et al) (Pullularia pullulans) | MIC (Pullularia pullulans; agar culture media) | QA (amount of compound A in the concentration of A/B which prevents the growth of microbes) (Trichoderma viride; [3]) | X (synergism index by Kull et al) (Trichoderma viride) | MIC (Trichoderma viride; agar culture media) | also measured |
| --- | --- | --- | --- | --- | --- | --- | --- | --- | --- | --- | --- | --- | --- | --- | --- | --- | --- | --- |
| CN1CSC(=S)N(C)C1 [3,5-dimethyl-tetrahydro-1,3,5-thiadiazine-2-thione] | – | – | – | – | – | – | – | – | – | – | – | – | – | – | – | – | – | stability [1]: only moderately stable |
| Oc1ccc(Cl)cc1Cc1cc(Cl)ccc1O [A/B 100/0 (Example 1), (2,2'-dihydroxy-5,5'-dichloro)-diphenyl-methane] | 1 | 20 µg/mL | 20 | 1 | 20 µg/mL | 50 | 1 | 50 µg/mL | 10 | 1 | 10 µg/mL | 20 | 1 | 20 µg/mL | 50 | 1 | 50 µg/mL | QA (amount of compound A in the concentration of A/B which prevents the growth of microbes) (Alternaria tenuis): 20; MIC (Alternaria tenuis; Alternaria alternata, read-out: Qa (concentration of compound A, which represents the MIC)): 20 µg/mL; MIC (Aspergillus niger; Aspergillus niger, A differs between Example 1 and Example 6, read-out: Qa (concentration of compound A, which represents the MIC)): 20 µg/mL; MIC (Chaetomium globosum; Chaetomium globosum, A differs between Example 1 and Example 6, read-out: Qa (concentration of compound A, which represents the MIC)): 50 µg/mL; MIC (Coniophora cerebella; Coniophora cerebella, A differs between Example 1 and Example 6, read-out: Qa (concentration of compound A, which represents the MIC)): 10 µg/mL; MIC (Pullularia pullulans; A differs between Example 1 and Example 6, read-out: Qa (concentration of compound A, which represents the MIC)): 20 µg/mL; MIC (Trichoderma viride; Trichoderma viride, A differs between Example 1 and Example 6, read-out: Qa (concentration of compound A, which represents the MIC)): 50 µg/mL |
| Oc1ccccc1-c1ccccc1 [A/B 100/0 (Example 6), 2-hydroxy-diphenyl] | – | – | 50 | 1 | 50 µg/mL | 50 | 1 | 50 µg/mL | 50 | 1 | 50 µg/mL | 50 | 1 | 50 µg/mL | 75 | 1 | 75 µg/mL | MIC (Aspergillus niger; Aspergillus niger, read-out: Qa (concentration of compound A, which represents the MIC)): 50 µg/mL; MIC (Chaetomium globosum; Chaetomium globosum, read-out: Qa (concentration of compound A, which represents the MIC)): 50 µg/mL; MIC (Coniophora cerebella; Coniophora cerebella, read-out: Qa (concentration of compound A, which represents the MIC)): 50 µg/mL; MIC (Pullularia pullulans; read-out: Qa (concentration of compound A, which represents the MIC)): 50 µg/mL; MIC (Trichoderma viride; Trichoderma viride, read-out: Qa (concentration of compound A, which represents the MIC)): 75 µg/mL |
| COC(=O)Nc1nc2ccccc2[nH]1 [B, benzimidazolyl-methyl-carbamate] | 1 | 5000 µg/mL | – | 1 | 2,5 mg/l | – | 1 | 0,4 mg/l | – | 1 | 2000 µg/mL | – | 1 | 0,25 mg/l | – | 1 | 2,5 mg/l | QB (amount of compound B in the concentration of A/B which prevents the growth of microbes) (Alternaria tenuis): 5000; MIC (Alternaria tenuis; Alternaria alternata, read-out: Qb (concentration of compound B, which represents the MIC)): 5000 µg/mL; QB (amount of compound B in the concentration of A/B which prevents the growth of microbes) (Aspergillus niger): 2,5; MIC (Aspergillus niger; Aspergillus niger, read-out: Qb (concentration of compound B, which represents the MIC)): 2.5 µg/mL; QB (amount of compound B in the concentration of A/B which prevents the growth of microbes) (Chaetomium globosum): 0,4; MIC (Chaetomium globosum; Chaetomium globosum, read-out: Qb (concentration of compound B, which represents the MIC)): 0.4 µg/mL; QB (amount of compound B in the concentration of A/B which prevents the growth of microbes) (Coniophora cerebella): 2000; MIC (Coniophora cerebella; Coniophora cerebella, read-out: Qb (concentration of compound B, which represents the MIC)): 2000 µg/mL; QB (amount of compound B in the concentration of A/B which prevents the growth of microbes) (Pullularia pullulans): 0,25; MIC (Pullularia pullulans; read-out: Qb (concentration of compound B, which represents the MIC)): 0.25 µg/mL; QB (amount of compound B in the concentration of A/B which prevents the growth of microbes) (Trichoderma viride): 2,5; MIC (Trichoderma viride; Trichoderma viride, read-out: Qb (concentration of compound B, which represents the MIC)): 2.5 µg/mL |
| [Na+].[O-]c1c(Cl)c(Cl)c(Cl)c(Cl)c1Cl [sodium pentachlorophenolate] | – | – | – | – | – | – | – | – | – | – | – | – | – | – | – | – | – | mould-resistance of paper [2]: poor mould-resistance; discharged air problems (fungus): disagreable odours, mucosal irritation; effluent toxicity (fungus): the effluent is toxic to fish; LD50 oral (rats): 270 mg/kg |

Source: patent US4395274A, “Microbicidal agent and its use” (Bayer Aktiengesellschaft, priority 1979, dated 1983)
